Assay [1] has as its system C4-2B metastatic cell line. The experiment in a line: Secretion of soluble tPSA and fPSA under SPB treatment. Type of assay: cell-based, human. Particulars: culture supernatants. Here is the method:
Cells were grown to 70-80% confluence at 37° C. and 5% CO2 in T-75 tissue culture plastic flasks. SPB stock solution was added to final concentrations of 0.5, 5.0, 10.0, and 25.0 mM in appropriate fresh media to the cell cultures. Cells were incubated at 37° C. and 5% CO2 for 72 hours. Attached cells were then harvested using a solution of 0.05% trypsin and 0.53 mM EDTA (Invitrogen Corp.). Attached cells were then pooled with any the detached cells and washed with PBS pH 7.2. Cell numbers and percent viability were determined using Trypan blue dye exclusion and a hemacytometer. At the time of their use in an experiment the viability was usually about 85% for untreated cells and a range of about 15-70% for treated cells, with the lower viabilities found at higher SPB concentrations (Thompson C, 1995; Cory et al., 1998; van Engeland et al., 1996). […] The data confirms the biological differences in these three cell lines and provides a stronger basis upon which to assess the behavior of the UC28 gene under the same SPB treatment conditions. For both of these experiments, supernatants were collected from the same experiments as in Example 1; cells were collected and assayed for apoptosis as well as for UC28 antigen expression using antibodies to SEQ ID NO:4.

The subject of assay [2] is MLC-SV40 immortalized normal cells. The experiment in a line: Dose-response kinetics of UC28 protein expression by flow cytometry. Particulars: 0.5 to 25 mM SPB. Type of assay: cell-based. Here is the method: Cells were grown to 70-80% confluence at 37° C. and 5% CO2 in T-75 tissue culture plastic flasks. SPB stock solution was added to final concentrations of 0.5, 5.0, 10.0, and 25.0 mM in appropriate fresh media to the cell cultures. Cells were incubated at 37° C. and 5% CO2 for 72 hours. Attached cells were then harvested using a solution of 0.05% trypsin and 0.53 mM EDTA (Invitrogen Corp.). Attached cells were then pooled with any the detached cells and washed with PBS pH 7.2. Cell numbers and percent viability were determined using Trypan blue dye exclusion and a hemacytometer. At the time of their use in an experiment the viability was usually about 85% for untreated cells and a range of about 15-70% for treated cells, with the lower viabilities found at higher SPB concentrations (Thompson C, 1995; Cory et al., 1998; van Engeland et al., 1996). UC28(C) is 2.14 mg/ml rabbit polyclonal aliquot directed against the inventors' UC28 patented biomarker developed by UCor R&D gene discovery program. The Antibody was produced against a […] (AA) synthetic peptide from the predicted AA sequence (AA 21-37) UCor, Inc. 840 Research Parkway Oklahoma City, Okla. 73104. Goat Anti-Rabbit CY5 polyclonal Fluorchrome was used as the secondary conjugate for UC28 C rabbit polyclonal antibody and a background control for UC28 C polyclonal. […]
Background: Flow cytometry measures light scatter and fluorescence of single cells or particles in a stream.

The test system of a further assay is C4-2B Prostate Cell Line. Nature of the assay: Dual label UC28 C/AnnexinV flow cytometry after SPB treatment. Type of assay: cell-based, human. The note with it: for Total AnnexV / Total UC28C: 72 hours, UC28-GAR-CY5/AnnexV-FITC. Here is the method:
Cells were grown to 70-80% confluence at 37° C. and 5% CO2 in T-75 tissue culture plastic flasks. SPB stock solution was added to final concentrations of 0.5, 5.0, 10.0, and 25.0 mM in appropriate fresh media to the cell cultures. Cells were incubated at 37° C. and 5% CO2 for 72 hours. Attached cells were then harvested using a solution of 0.05% trypsin and 0.53 mM EDTA (Invitrogen Corp.). Attached cells were then pooled with any the detached cells and washed with PBS pH 7.2. Cell numbers and percent viability were determined using Trypan blue dye exclusion and a hemacytometer. At the time of their use in an experiment the viability was usually about 85% for untreated cells and a range of about 15-70% for treated cells, with the lower viabilities found at higher SPB concentrations (Thompson C, 1995; Cory et al., 1998; van Engeland et al., 1996).
VO1 Apoptosis Detection Kit contains: (1) Fluorocein-isothiocyante (FITC) conjugated AnnexinV [AnnexinV01] 1 ml (2) Propidium Iodide [Annex-Pi] 2.0 ml (3) 4× Binding Buffer [Annex-B] 20.0 ml. Vendor is CalTag Laboratories, Inc., 1849 Bayshore Boulevard #200 Burlingame, Calif. 94010.
UC28(C) is 2.14 mg/ml rabbit polyclonal aliquot directed against the inventors' UC28 patented biomarker developed by UCor R&D gene discovery program. The Antibody was produced against a twenty amino acid (AA) synthetic peptide from the predicted AA sequence (AA 21-37) UCor, Inc. 840 Research Parkway Oklahoma City, Okla. 73104.
Goat Anti-Rabbit CY5 polyclonal Fluorchrome was used as the secondary conjugate for UC28 C rabbit polyclonal antibody and a background control for UC28 C polyclonal. Vendor is Jackson ImmunoResearch Laboratories, Inc. 872 West Baltimore Pike, P.O. Box 9 West Grove, Pa. 19390.
MsIgG-FITC mouse conjugated-FITC was used for background control for AnnexinV01. Vendor is Becicman Coulter, Inc. Diagnostic Division, 11800 SW 147th Ave. M/S 42-003, P.O. Box 169015, Miami, Floridia 33116-9015.
A Coulter Elite engineered with a triple laser system was used to analyze all samples. Coulter control beads were used to align lasers for the dual label testing of cell samples. Laser alignment was required for both the Argon (488 nm line) laser and HeNe (633 nm line) laser. These alignments were performed prior to all measurements with the Argon laser (488 nm line) using fluorophores for FITC, RPE, PI and the HeNe laser (633 nm line) for the Cy5 fluorophores being used for the experiments described below. The histographs, voltage settings, gates, color compensation, and pressures were established prior to all sample processing. […]
UC28 and Annexin V were co-labeled in the three cell lines to assess the induction of UC28 by SPB and its correlation to the induction of apoptosis. […] It may be noted that in previously published experiments, AnnexinV and PI were run in combination with several prostate cancer cell lines, one of which was LNCaP, but not with C4-2B or MLC-SV40. It was determined that they produced similar dose-response kinetics when exposed to 0.5-25 mM of SPB for 72 hours (Ng et al., 1989). That is, as the dose of SPB increased, so did the membrane perturbation events measured by these two methods.

Each structure is given as a SMILES string.

Turning to `O=C([O-])CCCc1ccccc1.[Na+]` [SPB, 4-Phenylbutyric Acid, Sodium Salt], in assay [1], the fPSA production entry is on record as “down-regulated” and the tPSA production entry is recorded as “down-regulated”. Besides, in assay [2], the “UC28 membrane protein expression” value is reported as “do not over express”. In the assay on C4-2B Prostate Cell Line (0.5 mM SPB), the “Total AnnexV” value was 41.1% and the “Total UC28C” value was 29.8%. In addition, in the assay on C4-2B Prostate Cell Line (5.0 mM SPB), the “Total AnnexV” value was 94.0% and the “Total UC28C” value is recorded as 81.8%. Besides, in the assay with C4-2B Prostate Cell Line (10 mM SPB), the “Total AnnexV” value is 80.0% and the “Total UC28C” value came to 88.0%. In the assay with C4-2B Prostate Cell Line (25 mM SPB), the “Total AnnexV” value stood at 82.3% and the “Total UC28C” value turned out to be 96.5%. Besides, in the assay with C4-2B Prostate Cell Line (SPB, summary of Table 5), the UC28 up regulation result was “up regulated” and the induction of apoptosis entry was “induced”.

Source of the values: US20120213789A1, “New Molecular Target for Treatment of Cancer” (priority 2001, published 2012).
